The structures appear in SMILES notation.

What is called melting point is the temperature of the solid-liquid transition. As to `C[C@]1(COC(=O)N2CCC(Nc3ccc(C(F)(F)F)cc3)CC2)Cn2cc([N+](=O)[O-])nc2O1`, the melting point was 137 to 140 °C. With `CC(CCCC(C)(C)O)C1CCC2C3=CC=C4CC(O)C5OC5C4(C)C3CCC21C` (centres undefined) the figure was 173 to 175 °C; with `CC1(C)CCC(C)(C)c2cc(C#Cc3ccc(C=O)cc3)ccc21`, 130 °C.

With `CC(C)(N)COC(=O)CCc1cc(C(C)(C)C)c(O)c(C(C)(C)C)c1`, the melting point lay in the range of 97 to 99 °C. Molecule `COC(=O)c1cccnc1N(C)C1CCN(Cc2ccccc2)CC1` had a melting point of 109 to 110 °C. Molecule `CC(C)(Oc1ccc(OCc2cnc(-c3ccc(C(F)(F)F)cc3)nc2C2CC2)c(F)c1)C(=O)O` registered a melting point of 178 °C. To `Clc1ccc2c(c1)C(c1ccccc1)=NCc1nnc(Cc3ccccc3)n1-2` belongs 190 to 192 °C. With `Cc1nc2c(cc1C(=O)NC(=N)N)C(O)CCCC2` (centres undefined) the figure was 225 to 226 °C; with `Cc1c(CCC(=O)O)c[nH]c1C=O`, 128 to 134 °C; with `CN1CCN(CNC(=O)c2cccc(Nc3nccc(-c4cccnc4)n3)c2)CC1`, 220 to 224 °C.

Turning to `Cc1ccc2[nH]c(CO)cc2c1C`, the melting point was found to be 159 °C. To `ON=C1c2ncc(Cl)cc2C=CC1Cl` (centres undefined) belongs 202 °C; to `Nc1c(F)c(N2CCNCC2)cc2c1c(=O)c(C(=O)O)cn2C1CC1`, 214 to 216 °C; to `CC(C)Oc1ccc(/C=C(\NC(=O)c2ccc(OCCC(F)(F)F)cc2)C(=O)NCCO)cc1`, 84 to 86 °C. Consider `COc1cc(OC)nc(OC(C(=O)O)C2c3ccccc3CC2C)n1` (centres undefined), for which the melting point lay in the range of 148 to 151 °C. To `CCC(SCC(=O)O)c1cc2c(cc1C)OCO2` (centres undefined) belongs 98 to 99 °C; to `C=CCN1C(=O)NC(C)(C)C1=O`, 66.2 to 68.7 °C. To `COc1ccccc1N1CCN(CCN2C(=O)c3ccccc3C2=O)CC1` belongs 76 to 81 °C; to `COc1cccc([C@H]2O[C@H](CC(=O)N[C@H](CCSC)C(=O)O)C(=O)N(CC(C)(C)C)c3ccc(Cl)cc32)c1OC`, 161 to 162 °C; to `O=C(Nc1c(C(O)(C(F)(F)F)C(F)(F)F)ccc2ccccc12)c1cccc(F)c1`, 190 to 192 °C. With `CN1C(=O)C(c2ccc(OCCCCBr)cc2)Sc2cc(Cl)ccc21` (centres undefined) the figure was 70 to 72 °C; with `CC(C)Oc1ccc(CCCOc2cc(CCC(=O)O)n(C)n2)c(Oc2ncc(Cl)cc2Cl)c1`, 77 to 78 °C; with `Fc1cccc2c(CCCc3ccc(Cl)cc3)ccnc12`, 97 °C.

Molecule `CC(C)(C)NC(=O)NCC#N` registered a melting point of 128 to 132 °C. To `COc1nn(CC(C)=O)c(=O)s1` belongs 66 to 67 °C; to `COc1cc2c(cc1Br)C(c1ccccc1Cl)=NC1=C(C)NNC1=N2`, 210 to 211 °C; to `C#Cc1c(C#N)nn(-c2c(Cl)cc(C(F)(F)F)cc2Cl)c1Cl`, 109 to 110 °C. On to `CS(=O)(=O)c1cccc(C(=O)Nc2cc(C(=O)NCc3ccccc3)ccn2)c1`, for which the melting point was 170 to 171 °C.

On to `CC1C(=O)Oc2cc(N3CCCCC3)ccc21` (centres undefined), for which the melting point is 78 to 80 °C. With `N#Cc1c(-c2cccs2)nn(-c2ccccc2)c1N` the figure was 165 to 167 °C; with `O=c1nc(-c2cccc(CN3CCCCC3)n2)sc2ccccc12`, 162 to 163 °C. `C[C@@H]1OCCN(c2cc(N3CCOCC3)nc(-n3c(C(F)F)nc4ccccc43)n2)[C@@H]1C` (relative stereo) registered a melting point of 167 to 169 °C. With `Cc1c(S(=O)(=O)Nc2ccc(-c3ncco3)cc2S(C)(=O)=O)sc2ccc(F)cc12` the figure was 207 to 208 °C. To `CCCCCC1CCC(c2ccc(C(=O)O)cc2)CC1` (centres undefined) belongs 30 °C; to `COc1ccc(/C=C/C(=O)Nc2ccc(C(=O)O)cc2)cc1OC`, 258 to 259 °C; to `COc1c(C)cnc(CO)c1C`, 49 to 51 °C. With `CC(C)CCC1CCCCc2c1oc(=O)c(C(c1ccccc1)C1CC1)c2O` (centres undefined) the figure was 67 to 77 °C; with `N#Cc1cscc1Nc1c(Cl)cccc1Cl`, 105 to 108 °C; with `COc1cc(NCCCC(C)N2C(=O)c3ccccc3C2=O)c2nc(C)cc(C)c2c1OC` (centres undefined), 141 to 144 °C. In turn, `COc1ccc2c(c1)N(C)C(=O)C2C` (centres undefined) yielded a melting point of 44 to 46 °C. To `N#Cc1cc2c(cc1O)OCC21C(=O)N(Cc2ccccc2C(F)(F)F)c2ccccc21` (centres undefined) belongs 122 to 124 °C; to `CCOC(=O)c1cn(C2CC2)c2c(CN3CCCC3)c(N3CCOCC3)c(F)cc2c1=O`, 227 to 232 °C. With `COc1ccc(C(=O)NCCSSCCNC(=O)c2ccc(OC)cc2)cc1` the figure was 136 to 138 °C; with `Nc1nc2[nH]c(CCCCc3ccc(C(=O)N[C@@H](CCC(=O)O)C(=O)O)s3)cc2c(=O)[nH]1`, 179 to 180 °C; with `O=C(O)Cc1nc(-c2ccc(F)cc2)oc1-c1cccs1`, 208 to 209 °C. With `CCN(CC)c1c(C(=O)O)ccc(OC)c1OC` the figure was 57 to 62 °C; with `O=C1Cc2cc([N+](=O)[O-])c(NC(=O)c3ccncc3)cc2N1`, over 300 °C; with `CCCCCCCCOC(=O)Oc1ccc(-c2ccc(C#N)cc2)cc1`, 51.6 °C. With `Cn1cc(-c2ccccc2)c(=O)c(-c2cccc(C#N)c2)c1`, the melting point lay in the range of 164 to 166 °C.

`CC12CCCCC1(O)CCC1C2CCC2(C)C1CC13OCCOC12OCCO3` (centres undefined) came in with a melting point of 160 to 162 °C.

Consider `COc1cc(N)c(Cl)cc1C(=O)NCC1CCN(CCCCCC(=O)c2ccc(Cl)cc2)CC1`, for which the melting point was in the range of 156 to 158 °C. With `CCCCCCCCCCCCCCOc1ccc(OCc2ccccc2)c(C(=O)N(CC(=O)OCC)CC(=O)OCC)c1` the figure was 49 to 50 °C. With `CCN1CCC(CC(=O)NOC(C)(C)C)(S(=O)(=O)c2ccc(Oc3ccccc3)cc2)CC1` the figure was 152 to 155 °C; with `C[Si](C)(C)CCCOc1cc(Cl)c([N+](=O)[O-])cc1Cl`, 45 to 48 °C; with `Cc1ccc(S(=O)(=O)NC(=O)N2C(=O)CN2C(c2ccccc2)c2ccccc2)cc1`, 115 to 123 °C. To `CN(C)c1ccc(C=Cc2ccc(S(C)(=O)=O)cc2)cc1` belongs 242 to 243 °C; to `OC(c1ccccc1)c1ccc(-c2ccccc2)cc1` (centres undefined), 72 to 73 °C. `Cc1c(C)c2c(c(C)c1N)CC(C)(CN1CCC(OCc3ccccc3)CC1)O2` (centres undefined) yielded a melting point of 85 to 86 °C. To `COC(=O)c1ccc(OC)c(C(C)=O)c1` belongs 54 to 58 °C. Regarding `COc1c(N2CCC(n3nncc3C)C2)c(F)cc2c(=O)c(C(=O)O)cn(C3CC3)c12` (centres undefined), the melting point lay in the range of 226 to 228 °C. Consider `Cc1nc2c(N)nc3ccccc3c2n1CCOC/C=C/c1ccccc1`, for which the melting point worked out at 112 °C. With `Cc1ccc(C=CC(=O)C=Cc2ccc([N+](=O)[O-])cc2)cc1` the figure was 182 to 184 °C; with `CN(C)CCc1cccc(OCCCCN2C(=O)c3ccccc3C2=O)c1`, 52 to 53 °C; with `CCOc1c(C)cccc1-c1nc2ccc(C(=O)O)cc2c(=O)[nH]1`, 240 to 241 °C.

(Values after a melting point compilation (Tetko et al.; mined from patent text by program, amines drawn as free bases though some values may be those of a salt).)
